Laboratory results as given in US11793803B2, “Particle and pharmaceutical composition comprising an insoluble camptothecin compound with double core-shell structure and method for manufacturing the same” (SN BIOSCIENCE INC., priority 2017, dated 2023).
≈ marks a conversion by molar mass, not a printed value.

Assay: Solubility in different solvents (supersaturated solution, filtrate analysed by HPLC)
Conditions: for solubility at 30 min: thermodynamic from solid
Protocol: A supersaturated solution was prepared by adding 20 mg of the hydrophobic camptothecin compound (camptothecin or SN-38) to 5 ml of ethanol, acetonitrile, acetone, ethyl acetate, chloroform dimethyl sulfoxide, or distilled water, followed by ultrasonic treatment for 30 minutes. The prepared supersaturated solution was filtered through a 0.45-μm filter, and a filtrate was properly diluted, followed by HPLC analysis.
The prepared supersaturated solution was filtered through a 0.45-μm filter, and a filtrate was properly diluted, followed by HPLC analysis.
HPLC (Agilent 1200 Series, USA) conditions were as follows. The column was CapcellPak C8 (5 m, 4.6 mm×25 cm, Shiseido); the mobile phase was a mixed solvent of methanol:acetonitrile:buffer (2.8 g/L sodium dihydrogenphosphate, 1.8 g/L 1-octanesulfonate aqueous solution)=17:24:59 (v/v); the flow rate was 1.5 mL/min; the measurement wavelength was UV 255 nm; and the sample injection amount was 15 μL.

SMILES | Solubility of hydrophobic camptothecin-based compound (Acetonitrile) | Solubility of hydrophobic camptothecin-based compound (Chloroform) | Solubility of hydrophobic camptothecin-based compound (Dimethyl sulfoxide) | Solubility of hydrophobic camptothecin-based compound (Distilled water) | Solubility of hydrophobic camptothecin-based compound (Ethanol) | Solubility of hydrophobic camptothecin-based compound (Ethyl acetate) | solubility at 30 min (acetonitrile, organic solvent or mixture) | solubility at 30 min (chloroform, organic solvent or mixture) | solubility at 30 min (dimethyl sulfoxide, organic solvent or mixture) | solubility at 30 min (distilled water, water) | solubility at 30 min (ethanol, organic solvent or mixture) | solubility at 30 min (ethyl acetate, organic solvent or mixture)
CCc1c2c(nc3ccc(O)cc13)-c1cc3c(c(=O)n1C2)COC(=O)[C@]3(O)CC [SN-38, 7-ethyl-10-hydroxy-camptothecin] | 402 µg/mL | 9 µg/mL | 2263 µg/mL | <1 µg/mL | 779 µg/mL | 78 µg/mL |  |  |  |  |  | 
CC[C@@]1(O)C(=O)OCc2c1cc1n(c2=O)Cc2cc3ccccc3nc2-1 [Camptothecin, camptothecin] |  |  |  |  |  |  | 101 µg/mL (≈ 290 µM) | 2 µg/mL (≈ 5.74 µM) | 3290 µg/mL (≈ 9450 µM) | 9 µg/mL (≈ 25.8 µM) | 149 µg/mL (≈ 428 µM) | 134 µg/mL (≈ 385 µM)
